According to patent US20050222114A1, “Use of new etonogestrel esters” (priority 2002, published 2005):
Read-outs that look alike come from different tables or passages of the source.

Columns and labels:
[1] = Solubility in solvents determined visually (appearance); format: physicochemical; conditions: for solubility at two times the desired concentration: all four solvents tested, desired concentration 50 mg/ml etonogestrel-undecanoate, 100 mg/ml MENT-undecanoate
Method: To determine the solubility and viscosity of MENT undecanoate and etonogestrel undecanoate, four different solvents were used: • ethyl undecanoate • ethyl undecanoate+50% benzyl benzoate • arachis oil • arachis oil+50% benzyl benzoate
Using these solvents, the following solutions were prepared: • 100 mg/ml etonogestrel undecanoate in the different solvents • 50 mg/ml etonogestrel undecanoate in the different solvents • 200 mg/ml MENT undecanoate in the different solvents • 100 mg/ml MENT undecanoate in the different solvents • 50 mg/ml etonogestrel undecanoate+100 mg/ml MENT undecanoate in the different solvents
The two combined solvents were prepared by addition of 50 gram of ethyl undecanoate or arachis oil to 50 gram of benzyl benzoate. […] The arachis oil+50% benzyl benzoate solution was not filtered.
The solubility of the compounds in the solvents was determined visually. The viscosity was determined using a Brookfield model DV-III. The density of the solutions was determined using a Mettler Toledo DA-100M density meter.

[2] = Pharmacokinetics of androgen esters after one s.c. injection in castrated rabbits (plasma MENT or testosterone by LC-MSMS); format: in vivo; conditions: castrated rabbit, one s.c. injection 20 mg/kg in arachis oil (100 mg/ml)
Method: With LC-MSMS, the amount of parent compound (testosterone or MENT) was determined in these samples.

[3] = Pharmacokinetics of etonogestrel esters after one i.m. injection in rabbits (plasma etonogestrel by LC-MSMS); conditions: rabbit; for initial peak level of etonogestrel in plasma: one i.m. injection 20 mg/kg in arachis oil (40 mg/ml)
Method: (§1) For the determination of the pharmacokinetic profile of the different etonogestrel-esters after parenteral application, i.m. application in the castrated rabbit model was chosen instead of s.c. Briefly, rabbits were injected once (day 1) with indicated etonogestrel-esters at 20 mg/kg in arachis oil (with a concentration of 40 mg/ml). At day 1, 2, 3, 4, 5, 6, 7, 8, 10, 12, 14, 21, 28, 35, 49, 63, 77, 92, 106, 120 and 133 blood was collected from the ear arteria, in EDTA-containing tubes. EDTA plasma was prepared (1500 g, 15 min) and stored at −20° C. With LC-MSMS the amount of parent compound (etonogestrel) was determined in these samples. The lower limit of this new assay is 0.5 nmol/l, from 0-250 nmol/l a linear curve was obtained with a correlation coefficient of 0,9998.

[4] = rabbit, in vivo, 20 mg/kg
Method: as §1

[5] = hypogonadal men, one IM injection, FIG. 5; cited from earlier work
[6] = one i.m. injection 20 mg/kg in arachis oil

SMILES: CCCCCCCCCCC(=O)O[C@H]1CC[C@H]2[C@H]3[C@H](CC[C@]12C)[C@H]1CCC(=O)C=C1C[C@H]3C [MENT-undecanoate]
- heating necessary to dissolve ([1]; 200 mg/ml in arachis oil): approximately 50 °C
- solubility at two times the desired concentration [1]: could be dissolved at two times the desired concentration

SMILES: CCCCCCC(=O)O[C@H]1CC[C@H]2[C@@H]3CCC4=CC(=O)CC[C@]4(C)[C@H]3CC[C@]12C [Testosterone-enanthate]
- pharmacokinetic profile of released MENT or testosterone (in words) [2]: high peak of testosterone

SMILES: C#CC1(OC(=O)CCCCCCCCC)CCC2C3CCC4=CC(=O)CCC4C3C(=C)CC21CC (stereo not shown) [etonogestrel decanoate]
- initial peak level of etonogestrel in plasma [3]: 24 nmol/L

SMILES: C#C[C@]1(OC(=O)CCCCCCCCCCC)CC[C@H]2[C@@H]3CCC4=CC(=O)CC[C@@H]4[C@H]3C(=C)C[C@@]21CC [etonogestrel dodecanoate]
- initial peak level of etonogestrel in plasma [3]: 9 nmol/L

SMILES: C#C[C@]1(OC(=O)CCCCCC)CC[C@H]2[C@@H]3CCC4=CC(=O)CC[C@@H]4[C@H]3C(=C)C[C@@]21CC [etonogestrel heptanoate]
- initial peak level of etonogestrel in plasma [3]: 120 nmol/L

SMILES: C#C[C@]1(OC(=O)CCCCCCCC)CC[C@H]2[C@@H]3CCC4=CC(=O)CC[C@@H]4[C@H]3C(=C)C[C@@]21CC [etonogestrel nonanoate]
- pharmacokinetic profile of released etonogestrel (in words) [3, 6]: lower peak levels and extended duration with serum levels of etonogestrel above 1 nmol/l

SMILES: C#C[C@]1(OC(=O)CCCCCCCCCCCC)CC[C@H]2[C@@H]3CCC4=CC(=O)CC[C@@H]4[C@H]3C(=C)C[C@@]21CC [etonogestrel tridecanoate]
- pharmacokinetic profile of released etonogestrel (in words) [3, 6]: no initial levels of etonogestrel were observed

SMILES: C#C[C@]1(OC(=O)CCCCCCCCCC)CC[C@H]2[C@@H]3CCC4=CC(=O)CC[C@@H]4[C@H]3C(=C)C[C@@]21CC [etonogestrel undecanoate]
- solubility at two times the desired concentration [1]: could be dissolved at two times the desired concentration
- duration of action: etonogestrel levels above 1 nmol/l [3, 6]: more than 92 days
- initial peak level of etonogestrel in plasma [3]: 13 nmol/L

SMILES: C#C[C@]1(O)CC[C@H]2[C@@H]3CCC4=CC(=O)CC[C@@H]4[C@H]3C(=C)C[C@@]21CC [etonogestrel, (17α)-13-ethyl-17-hydroxy-11-methylene-18,19-dinorpregn-4-en-20-yn-3-one]
- initial peak level of etonogestrel in plasma [4]: 200 nmol/L

SMILES: CCCCCCCCCCC(=O)O[C@H]1CC[C@H]2[C@@H]3CCC4=CC(=O)CC[C@]4(C)[C@H]3CC[C@]12C [testosterone undecanoate]
- pharmacokinetics of serum testosterone in humans (in words) [5]: low initial release and steady-state levels of long duration
